Data published in BigSolDB 2.1.

Sc1nc2ccccc2[nH]1
solubility (mole fraction)
Details	278.15 K	283.15 K	288.15 K	293.15 K	298.15 K	303.15 K	308.15 K	313.15 K	318.15 K
in 1,4-dioxane	0.0141	0.0153	0.0166	0.0181	0.0195	0.021	0.0227	0.0246	0.0265
in 2-butanone	0.0103	0.011	0.0117	0.0124	0.0133	0.0141	0.0151	0.0162	0.0172
in acetone	0.0121	0.0128	0.0135	0.0143	0.0152	0.016	0.0169	0.0179	0.0189
in acetonitrile	0.00102	0.00115	0.00129	0.00146	0.00163	0.00183	0.00205	0.00228	0.00257
in cyclohexane	4.36e-06	5.51e-06	7.05e-06	8.99e-06	1.16e-05	1.49e-05	1.88e-05	2.27e-05	2.81e-05
in ethanol	0.00532	0.00634	0.00746	0.00868	0.00998	0.0114	0.0126	0.0142	0.0158
in ethyl acetate	0.00198	0.00236	0.00275	0.00318	0.00366	0.00413	0.00463	0.00518	0.00577
in isopropanol	0.0034	0.00435	0.00528	0.00635	0.00755	0.0088	0.0102	0.0116	0.0132
in methanol	0.00625	0.0073	0.00848	0.00964	0.0109	0.0123	0.0138	0.0152	0.0169
in n-butanol	0.0041	0.0049	0.0058	0.0069	0.00809	0.00941	0.0109	0.0125	0.0144
in n-propanol	0.00484	0.00559	0.0065	0.00759	0.00872	0.00999	0.0114	0.0131	0.0151
in toluene	2.01e-05	2.73e-05	3.51e-05	4.35e-05	5.3e-05	6.38e-05	7.53e-05	8.87e-05	0.000104
